For experiment [1], the system named is E. coli S30 extract (bacterial protein synthesis). As to the kind of experiment: E. coli S30 extract coupled transcription-translation luciferase assay (inhibition of bacterial protein synthesis). In kind it is biochemical. To be noted: read-out: S30 IC50 (μM/% inhib.). Summed up:
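Cell-free coupled transcription-translation in E. coli S30 circular-DNA extract, with pBESTluc plasmid as template and complete amino acid mix. Eight 2-fold compound dilutions were incubated with the extract 1 h at 37 °C, chilled, then luciferase luminescence was read. % inhibition was taken relative to no-inhibitor wells; no-DNA wells gave background.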

Experiment [2] concerns the target Rabbit Reticulocyte Lysate (eukaryotic protein synthesis). As to the kind of experiment: Rabbit reticulocyte lysate luciferase assay (inhibition of eukaryotic protein synthesis). The experiment is classed as biochemical. To be noted: read-out: Rabbit reticulocyte IC50 (μM/% inhib.). Summed up:
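Nuclease-treated rabbit reticulocyte lysate translating luciferase control RNA, with complete amino acids, was incubated at 30° C. for 90 minutes with 2-fold serial compound dilutions. Luminescence was measured after adding luciferase reagent. % inhibition was relative to water controls, with no-RNA wells as background.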

Experiment [3] deals with A. baumannii (Ab). As to the kind of experiment: Broth microdilution minimum inhibitory concentration (MIC). To be noted: Acinetobacter baumannii, read-out: Ab + bicarb MIC. In kind it is cell-based. Summed up: (§1)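 CLSI broth microdilution with 8 two-fold compound dilutions in CAMHB, or CAMHB plus sodium bicarbonate (6.25 or 25 mM final) or heat-inactivated human serum (0–50%). Inoculum 5×10^4 CFU/well from 0.5 McFarland cultures grown at 35±2° C; tested in triplicate.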
A general note: Broth dilution looks for growth in wells or tubes with falling amounts of substance.

Experiment [4] relates to E. coli (Ec). The description is as above. In kind it is cell-based. To be noted: Escherichia coli, read-out: E. coli + bicarb MIC. Summed up:
as §1

Experiment [5] relates to E. faecalis (Ef). The description is as above. To be noted: Enterococcus faecalis, read-out: Ef + bicarb MIC. The experiment is classed as cell-based. Summed up:
as §1

Experiment [6] deals with P. aeruginosa (Pa). Described as above. In kind it is cell-based. To be noted: Pseudomonas aeruginosa, read-out: Pa MIC + bicarb. Summed up:
as §1

Experiment [7] relates to S. aureus (Sa). The experiment is described as above. The experiment is classed as cell-based. To be noted: Staphylococcus aureus, read-out: Sa + bicarb MIC. Summed up:
as §1

[8] abbreviates: A. baumannii, growth medium with sodium bicarbonate.
The mark [9] stands for this setting: E. coli, growth medium with sodium bicarbonate.
[10] abbreviates: E. faecalis, growth medium with sodium bicarbonate.
The mark [11] stands for this setting: P. aeruginosa, growth medium with sodium bicarbonate.
Setting [12] is: S. aureus, growth medium with sodium bicarbonate.
The mark [13] stands for this setting: class by IC50 or % inhibition @ 1 μM.
Setting [14] is: A. baumannii, growth medium supplemented with sodium bicarbonate.
The mark [15] stands for this setting: E. coli, growth medium supplemented with sodium bicarbonate.
Setting [16] is: E. faecalis, growth medium supplemented with sodium bicarbonate.
Setting [17] is: P. aeruginosa, growth medium supplemented with sodium bicarbonate.
Where [18] appears, read: S. aureus, growth medium supplemented with sodium bicarbonate.

Counter-ions that a name gives are not always drawn. Like-named read-outs stand apart in the source and are kept apart here. A value given as a limit tells only on which side of the number the result lay.

The record followed here is patent US12503452B2 (Curza Global, LLC, priority 2019, dated 2025).

Usually MIC stands for the lowest concentration found to suppress growth.

`CC(Cc1ccc(-n2ccc(NC(=O)N3CCN(C(=O)C(C)(C)N)CC3)nc2=O)cc1)N1CCC(C2CNC2)CC1` (centres unmarked) [Compound 379]: the IC50 in experiment [1] (% inhibition @ 1 μM) and in experiment [2] (% inhibition @ 1 μM) was above 1 µM in each case. In addition, the MIC in experiment [3] (setting [8]) was above 32 µg/mL; in experiment [4] (setting [9]), below 8 µg/mL; in experiment [5] (setting [10]), above 32 µg/mL; in experiment [6] (setting [11]) it was above 32 µg/mL; in experiment [7] (setting [12]), below 8 µg/mL.

For the compound `CCC(N)C1CCCN(CCc2ccc(-n3ccc(NC(=O)N4CCN(C(=O)C(C)(C)N)CC4)nc3=O)cc2)C1` (centres unmarked) [Compound 23], the IC50 in experiment [1] (setting [13]) and in experiment [2] (setting [13]) was above 1 µM in each case. The MIC in experiment [3] (setting [14]) is above 32 µg/mL; in experiment [4] (setting [15]), below 8 µg/mL; in experiment [5] (setting [16]), above 32 µg/mL; in experiment [6] (setting [17]), above 32 µg/mL; in experiment [7] (setting [18]), 8 to 32 µg/mL.

On to `CC(C)(N)C(=O)N1CCN(C(=O)Nc2ccn(-c3ccc(CN[C@H]4CC[C@@H](N)CC4)cc3)c(=O)n2)CC1` [Compound 120], for which the IC50 in experiment [1] (setting [13]) was below 0.5 µM; in experiment [2] (setting [13]), above 1 µM. The minimum inhibitory concentration (MIC) is above 32 µg/mL in experiment [3] (setting [14]); below 8 µg/mL in experiment [4] (setting [15]); 8 to 32 µg/mL in experiment [5] (setting [16]); above 32 µg/mL in experiment [6] (setting [17]); below 8 µg/mL in experiment [7] (setting [18]).

As to `CCN(Cc1ccc(-n2ccc(NC(=O)N3CCN(C(=O)C(C)(C)N)CC3)nc2=O)cc1)[C@H]1CC[C@H](N)C(C)C1` (some centres unmarked) [Compound 338, hydrochloride salt], the IC50 in experiment [1] (setting [13]) is below 0.5 µM; in experiment [2] (setting [13]), above 1 µM. Also, the minimum inhibitory concentration (MIC) in experiment [3] was above 32 µg/mL; in experiment [4], below 8 µg/mL; in experiment [5], 8 to 32 µg/mL; in experiment [6], above 32 µg/mL; in experiment [7], below 8 µg/mL.

As for `CN(Cc1ccc(-n2ccc(NC(=O)N3CCN(C(=O)C(C)(C)N)CC3)nc2=O)cc1)CC1CC(N)C1` (centres unmarked) [Compound 127], the IC50 is below 0.5 µM in experiment [1] (setting [13]) and above 1 µM in experiment [2] (setting [13]). The MIC in experiment [3] (setting [14]) is above 32 µg/mL; in experiment [4] (setting [15]), below 8 µg/mL; in experiment [5] (setting [16]), below 8 µg/mL; in experiment [6] (setting [17]), above 32 µg/mL; in experiment [7] (setting [18]), below 8 µg/mL.

In the case of `CC(C)(N)C(=O)N1CCN(C(=O)Nc2ccn(-c3cccc(CCN4CC[C@H](CN)C4)c3)c(=O)n2)CC1` (stereo in doubt) [Compound 24], the IC50 is below 0.5 µM in experiment [1] (setting [13]) and above 1 µM in experiment [2] (setting [13]). Further, the minimal inhibitory concentration (MIC) was above 32 µg/mL in experiment [3] (setting [14]); 8 to 32 µg/mL in experiment [4] (setting [15]); above 32 µg/mL in experiment [5] (setting [16]); above 32 µg/mL in experiment [6] (setting [17]); 8 to 32 µg/mL in experiment [7] (setting [18]).

Turning to `CC(Cc1ccc(-n2ccc(NC(=O)N3CCN(C(=O)C(C)(C)N)CC3)nc2=O)cc1)N(C)[C@H]1CC[C@H](N)C1` (some centres unmarked) [Compound 163], the IC50 in experiment [1] (setting [13]) and in experiment [2] (setting [13]) was above 1 µM each time. The minimum inhibitory concentration (MIC) in experiment [3] (setting [8]) was above 32 µg/mL; in experiment [4] (setting [9]), 8 to 32 µg/mL; in experiment [5] (setting [10]), above 32 µg/mL; in experiment [6] (setting [11]), above 32 µg/mL; in experiment [7] (setting [12]), 8 to 32 µg/mL.

As to `CC(Cc1ccc(-n2ccc(NC(=O)N3CCN(C(=O)C(C)(C)N)CC3)nc2=O)cc1)N[C@@H]1CC[C@H](N)C1` (some centres unmarked) [Compound 172], the IC50 in experiment [1] (setting [13]) is below 0.5 µM; in experiment [2] (setting [13]), above 1 µM. For the same compound, the minimum inhibitory concentration (MIC) in experiment [3] (setting [8]) was above 32 µg/mL; in experiment [4] (setting [9]), below 8 µg/mL; in experiment [5] (setting [10]), below 8 µg/mL; in experiment [6] (setting [11]) it was above 32 µg/mL; in experiment [7] (setting [12]), below 8 µg/mL.
